Results reported in patent US6716883B1, “Composition useful to treat periodontal disease” (priority 1998, dated 2004).

Legend:
[1] = test system: rat bone marrow cultures; experiment: APA in rat bone marrow cultures treated with BaP; format: cell-based; conditions: increasing concentrations of BaP, ten-day old cultures
Protocol: In this experiment, the effects of the aryl hydrocarbon, benzo-a-pyrene (BaP) on the early events occurring during osteogenesis were determined. Ten-day old rat bone marrow cultures were treated with increasing concentrations of BaP. The effect of this treatment was monitored by APA as set out above.

[2] = test system: rat bone marrow cultures; experiment: Mineral levels in rat bone marrow cultures treated with BaP; format: cell-based; conditions: BaP at 10^−8M

Structure (SMILES): c1ccc2c(c1)cc1ccc3cccc4ccc2c1c34 [BaP, benzo-a-pyrene, reference compound]
- inhibition of alkaline phosphatase [1]: increased inhibition of alkaline phosphatase with increasing BaP concentration
- inhibition of mineral levels [2]: ≤ 90%
